In brackets after ≈: the same amount, converted by molar mass. Several values for one entry are separate records, joined by “and”; a condition that tells them apart may be missing. Identical values can stand only once. Like-named read-outs stand apart in the source and are kept apart here.
Experiments:
Acinetobacter baumannii [1] = assay: MIC micro-dilution; format: cell-based
Method: (§1) Luria-Bertani (LB) media (10 g/L tryptone, 10 g/L NaCl, 5 g/L yeast extract, pH 7.0) was used to grow all bacterial strains, except Streptococcus pyogenes. Streptococcus pyogenes was grown in Mueller-Hinton broth containing 5% (v/v) sheep blood. All bacterial cultures were grown at 37° C. All the E. coli strains were grown while shaking at 200 rpm, while clinical pathogens were incubated without shaking.
(§2) The MIC of all the strains was determined in LB media except Streptococcus pyogenes, which was grown in Mueller-Hinton media containing 5% (v/v) sheep blood. The micro-dilution method was utilized in 96-well clear flat-bottom plates (100 μL/well) according to the CLSI guidelines. All strains were grown at 37° C. for 16-18 hours in presence of various concentrations of compound. The MIC was determined by a visual inspection and experiments were performed in triplicate.

Bacillus subtilis 168 = assay: MIC micro-dilution; format: cell-based; settings: Bacillus subtilis, 168
Method: as §1, §2

Edwardsiella tarda [2] = assay: MIC micro-dilution; format: cell-based
Method: as §1, §2

Enterobacter aerogenes [3] = assay: MIC micro-dilution; format: cell-based
Method: as §1, §2

Klebsiella pneumoniae [4] = assay: MIC micro-dilution; format: cell-based
Method: as §1, §2

Morganella morganii [5] = assay: MIC micro-dilution; format: cell-based
Method: as §1, §2

Pseudomonas aeruginosa [6] = assay: MIC micro-dilution; format: cell-based
Method: as §1, §2

Salmonella typhimurium [7] = assay: MIC micro-dilution; format: cell-based
Method: as §1, §2

Shigella boydii [8] = assay: MIC micro-dilution; format: cell-based; settings: LB media, 37° C., 16-18 hours
Method: as §1, §2

Staphylococcus aureus [9] = assay: MIC micro-dilution; format: cell-based
Method: as §1, §2

Streptococcus pyogenes [10] = assay: MIC micro-dilution; format: cell-based; settings: Mueller-Hinton media containing 5% (v/v) sheep blood, 37° C., 16-18 hours
Method: as §1, §2

Vibrio cholerae [11] = assay: MIC micro-dilution; format: cell-based
Method: as §1, §2

Acinetobacter baumannii [12] = assay: MBC and antibacterial mode; format: cell-based
Method: (§3) The antibacterial mode (i.e., bactericidal, bacteriostatic) was determined by calculating the quotient of the MBC and the MIC. Compounds with a quotient >4 are defined as bacteriostatic; if the quotient is lower than 4, compounds are defined as bactericidal. A micro-dilution protocol was used to perform MIC and MBC experiments in triplicate according to the CLSI guidelines. […] The total volume (100 μL) in the wells with no visual growth were plated on 1.5% (w/v) LB agar or 1.5% (w/v) Mueller-Hinton agar with 5% sheep blood and incubated for 22 hours at 37° C.

Edwardsiella tarda [13] = assay: MBC and antibacterial mode; format: cell-based
Method: as §3

Enterobacter aerogenes [14] = assay: MBC and antibacterial mode; format: cell-based
Method: as §3

Klebsiella pneumoniae [15] = assay: MBC and antibacterial mode; format: cell-based
Method: as §3

Morganella morganii [16] = assay: MBC and antibacterial mode; format: cell-based
Method: as §3

Pseudomonas aeruginosa [17] = assay: MBC and antibacterial mode; format: cell-based
Method: as §3

Salmonella typhimurium [18] = assay: MBC and antibacterial mode; format: cell-based
Method: as §3

Shigella boydii [19] = assay: MBC and antibacterial mode; format: cell-based
Method: as §3

Staphylococcus aureus [20] = assay: MBC and antibacterial mode; format: cell-based
Method: as §3

Streptococcus pyogenes [21] = assay: MBC and antibacterial mode; format: cell-based
Method: as §3

Vibrio cholerae [22] = assay: MBC and antibacterial mode; format: cell-based
Method: as §3

[23] = test system: broad panel of human pathogens; assay: MIC against the panel of pathogens; format: cell-based
Method: as §1, §2

[24] = test system: E. coli anucleate cell strain (SH3210); assay: High throughput anucleate cell assay; format: cell-based, Escherichia coli; settings: screen of small molecule libraries
Method: Briefly, E. coli anucleate cell strain (SH3210; ΔtrpR5 his λ pXX747) is used in the assay. […] The anucleated cells thus appear fluorescent in the presence of a fluorescent substrate (e.g., DDOAG) for LacZ. The protocol is summarized as follows: • 1. Prepare overnight culture of E. coli anucleate cell strain (SH3210) from LB-ampicillin plates. • 2. Dilute starter culture 1:1000 with liquid LB treated with 50 mg/ml of ampicillin and incubate for approximately 2.5 hr at 37° C. until approximately 0.1 OD600. • 3. Split diluted culture into wells (200 μL) • i. […] Negative control: 1 μL of DMSO • 4. Incubate diluted culture with compounds for approximately 2.5 hr at 42° C. at 300 rpm in a clear plate. • 5. Incubate cultures on ice for approximately 10 min until condensation on the cover disappears. • 6. Measure absorbance at a wavelength of 595 nm. • 7. In a black 96-well plate, add 80 μL of Z-buffer (600 mM Na2HPO4, 40 mM NaH2PO4, 10 mM KCl, 0.1 MgSO4) to each well pre-loaded with the following reagents: • a. Cell lysis solution called Popculture™ (1:5 Popculture™ to buffer). Popculture™ is a buffered mixture of concentrated detergents. • b. […] Shake for 30 s and measure fluorescence at a wavelength of 659 nm. • 13. Normalize the fluorescence measurements by dividing by OD595.

Q: For CCCCCCCCCOc1ccc2[nH]cc(CCN)c2c1 [Compound 1, 5-nonyloxytryptamine], which MIC (Acinetobacter baumannii [1]) is on record?
A: 6 µg/mL (≈ 19.8 µM)

Q: And the MIC (Acinetobacter baumannii [1]; LB media, 37° C., 16-18 hours)?
A: 6.0 µg/mL (≈ 19.8 µM)

Q: What about the MIC (Bacillus subtilis 168) of the same compound?
A: 0.76 µg/mL (≈ 2.51 µM)

Q: And the MIC (Edwardsiella tarda [2])?
A: 6 µg/mL (≈ 19.8 µM)

Q: What about the MIC (Edwardsiella tarda [2]; LB media, 37° C., 16-18 hours) of the same compound?
A: 6.0 µg/mL (≈ 19.8 µM)

Q: What about the MIC (Enterobacter aerogenes [3]; Enterobacter aerogenes, LB media, 37° C., 16-18 hours) of the same compound?
A: 6.0 µg/mL (≈ 19.8 µM)

Q: And the MIC (Enterobacter aerogenes [3]; Klebsiella aerogenes)?
A: 6 µg/mL (≈ 19.8 µM)

Q: And the MIC (Klebsiella pneumoniae [4])?
A: 6 µg/mL (≈ 19.8 µM)

Q: And the MIC (Klebsiella pneumoniae [4]; LB media, 37° C., 16-18 hours)?
A: 6.0 µg/mL (≈ 19.8 µM)

Q: What about the MIC (Morganella morganii [5]) of the same compound?
A: 12 µg/mL (≈ 39.7 µM)

Q: And the MIC (Pseudomonas aeruginosa [6])?
A: 80 µM and 24 µg/mL

Q: What about the MIC (Salmonella typhimurium [7]; Salmonella enterica, TYPHIMURIUM) of the same compound?
A: 6 µg/mL (≈ 19.8 µM)

Q: And the MIC (Salmonella typhimurium [7]; Salmonella typhimurium, LB media, 37° C., 16-18 hours)?
A: 6.0 µg/mL (≈ 19.8 µM)

Q: And the MIC (Shigella boydii [8])?
A: 6.0 µg/mL (≈ 19.8 µM)

Q: What about the MIC (Shigella boydii [8]; read-out: MIC) of the same compound?
A: 6 µg/mL (≈ 19.8 µM)

Q: And the MIC (Staphylococcus aureus [9])?
A: 3 µg/mL (≈ 9.92 µM)

Q: What about the MIC (Staphylococcus aureus [9]; LB media, 37° C., 16-18 hours) of the same compound?
A: 3.0 µg/mL (≈ 9.92 µM)

Q: What about the MIC (Streptococcus pyogenes [10]) of the same compound?
A: 24 µg/mL (≈ 79.3 µM)

Q: What about the MIC (Vibrio cholerae [11]) of the same compound?
A: 6 µg/mL (≈ 19.8 µM)

Q: And the MIC (Vibrio cholerae [11]; LB media, 37° C., 16-18 hours)?
A: 6.0 µg/mL (≈ 19.8 µM)

Q: And the “Antibacterial Mode” value (Acinetobacter baumannii [12])?
A: Bactericidal (if the quotient is lower than 4, compounds are defined as bactericidal)

Q: What about the MBC (Acinetobacter baumannii [12]) of the same compound?
A: 6 µg/mL (≈ 19.8 µM)

Q: And the MBC/MIC (Acinetobacter baumannii [12])?
A: 1

Q: What about the “Antibacterial Mode” value (Edwardsiella tarda [13]) of the same compound?
A: Bactericidal (if the quotient is lower than 4, compounds are defined as bactericidal)

Q: What about the MBC (Edwardsiella tarda [13]) of the same compound?
A: 12 µg/mL (≈ 39.7 µM)

Q: And the MBC/MIC (Edwardsiella tarda [13])?
A: 2

Q: And the “Antibacterial Mode” value (Enterobacter aerogenes [14])?
A: Bacteriostatic (Compounds with a quotient >4 are defined as bacteriostatic)

Q: What about the MBC/MIC (Enterobacter aerogenes [14]) of the same compound?
A: >4

Q: And the MBC (Enterobacter aerogenes [14]; Klebsiella aerogenes)?
A: > 96 µg/mL

Q: And the “Antibacterial Mode” value (Klebsiella pneumoniae [15])?
A: Bactericidal (if the quotient is lower than 4, compounds are defined as bactericidal)

Q: And the MBC (Klebsiella pneumoniae [15])?
A: 6 µg/mL (≈ 19.8 µM)

Q: And the MBC/MIC (Klebsiella pneumoniae [15])?
A: 1

Q: What about the “Antibacterial Mode” value (Morganella morganii [16]) of the same compound?
A: Bactericidal (if the quotient is lower than 4, compounds are defined as bactericidal)

Q: And the MBC (Morganella morganii [16])?
A: 24 µg/mL (≈ 79.3 µM)

Q: What about the MBC/MIC (Morganella morganii [16]) of the same compound?
A: 2

Q: What about the “Antibacterial Mode” value (Pseudomonas aeruginosa [17]) of the same compound?
A: Bacteriostatic (Compounds with a quotient >4 are defined as bacteriostatic)

Q: And the MBC (Pseudomonas aeruginosa [17])?
A: 96 µg/mL (≈ 317 µM)

Q: What about the MBC/MIC (Pseudomonas aeruginosa [17]) of the same compound?
A: 4

Q: What about the “Antibacterial Mode” value (Salmonella typhimurium [18]) of the same compound?
A: Bacteriostatic (Compounds with a quotient >4 are defined as bacteriostatic)

Q: What about the MBC/MIC (Salmonella typhimurium [18]) of the same compound?
A: 4

Q: And the MBC (Salmonella typhimurium [18]; Salmonella enterica)?
A: 24 µg/mL (≈ 79.3 µM)

Q: What about the “Antibacterial Mode” value (Shigella boydii [19]) of the same compound?
A: Bactericidal (if the quotient is lower than 4, compounds are defined as bactericidal)

Q: What about the MBC (Shigella boydii [19]) of the same compound?
A: 6 µg/mL (≈ 19.8 µM)

Q: What about the MBC/MIC (Shigella boydii [19]) of the same compound?
A: 1

Q: And the “Antibacterial Mode” value (Staphylococcus aureus [20])?
A: Bactericidal (if the quotient is lower than 4, compounds are defined as bactericidal)

Q: And the MBC (Staphylococcus aureus [20])?
A: 6 µg/mL (≈ 19.8 µM)

Q: And the MBC/MIC (Staphylococcus aureus [20])?
A: 2

Q: What about the “Antibacterial Mode” value (Streptococcus pyogenes [21]) of the same compound?
A: Bactericidal (if the quotient is lower than 4, compounds are defined as bactericidal)

Q: What about the MBC (Streptococcus pyogenes [21]) of the same compound?
A: 24 µg/mL (≈ 79.3 µM)

Q: And the MBC/MIC (Streptococcus pyogenes [21])?
A: 1

Q: What about the “Antibacterial Mode” value (Vibrio cholerae [22]) of the same compound?
A: Bacteriostatic (Compounds with a quotient >4 are defined as bacteriostatic)

Q: What about the MBC (Vibrio cholerae [22]) of the same compound?
A: 24 µg/mL (≈ 79.3 µM)

Q: What about the MBC/MIC (Vibrio cholerae [22]) of the same compound?
A: 4

Q: What about the MIC ([23]; Pseudomonas aeruginosa) of the same compound?
A: 5 to 20 µM

Q: And the MIC ([23]; against the pathogens tested, except Pseudomonas aeruginosa, read-out: MIC)?
A: 3 to 12 µg/mL

Q: What about the “hit in anucleate cell screen” value [24] of the same compound?
A: potent hit

Reference: patent US9849099B2, “Antimicrobial compounds, compositions and methods of use thereof” (WISCONSIN ALUMNI RESEARCH FOUNDATION, priority 2014, dated 2017)
